# Measured values published in patent publication US9023817B2, “Use of albiflorin for anti-depression” (priority 2009, dated 2015).
# Where a name gives a salt, the structure may show the parent alone. Marks after values point to notes of the source that are not given here.
# Legend:
# ICR mice [1] = test: Forced swimming test in mice; assay type: in vivo; conditions: 1 h after administration, last 4 min; for Immobility Time (s): listed as paeoniflorin
# Procedure: Each group was administered by gavage at a dose of 0.2 ml/10 g weight, for two days, deionized water was administered to vehicle group.
# In the second day, 1 h after the administration, the mice were placed separately into a water cylinder with 20 cm of height, 18 cm of diameter, 10 cm of depth, 23±2° C. of water temperature; observing each for 6 min, after 2 min of adaption, the immobility time over the last 4 min was recorded.
# The data was expressed as x±s, analyzed by SPSS 13.0 statistical software by means of One-Way ANOVA test, the homogeneity of variance was tested by LSD and SNK test.
# ICR mice [2] = test: Tail suspension test in mice, administration by gavage; assay type: in vivo; conditions: 1 h after administration, over 4 min; for Immobility Time (s): listed as paeoniflorin
# Procedure: In the second day, 1 h after the administration, the tail of mouse (2 cm away from the tip of the tail) was fixed to the connection line of 100 g tension transducer by adhesive plaster, and the mouse was hung upside down, with the head about 15 cm away from the experimental bench, two animals isolated from each other by a cardboard were simultaneously tested for each time. The transducer was connected to the Medlab bio-signals acquisition and processing system, after 2 min of adaption, the result over 4 min was recorded, and the immobility situation was converted into the time(s). The experimental data were expressed as X±SD, and the analysis of variance for the experimental results was carried out by SPSS 11.5 statistical software (purchased from SPSS Inc., USA).
# ICR mice [3] = test: Reserpine-induced hypothermia test in mice; assay type: in vivo; conditions: 3 mg/kg gavage 7 days, reserpine 2 mg/kg i.p., rectal temperature 4 hours after reserpine
# Procedure: 50 mice were randomly divided into five groups (n=10 for each group): high-dose group (14 mg*kg^−1), medium-dose group (7 mg*kg^−1), low-dose group (3.5 mg*kg^−1) of Albiflorin; control group of paroxetine (3 mg/kg); model group of physiological saline. The gavage was carried out for 7 days. Rectal temperatures of mice were measured at 1 hour after the administration on the 8th day, then reserpine was administered by intraperitoneal injection at a dose of 2 mg/kg, rectal temperatures of mice were measured again at 4 hours after the injection of reserpine. The depth into anus of thermometer and the time for each temperature measurement of mice was coincident. The experimental data was expressed as X±SD, and the analysis of variance for the experimental results was carried out by SPSS 11.5 statistical software (purchased from SPSS Inc., USA), the experimental results were shown in Table 4.
# [4] = test system: rats with chronic stress induced depression model; test: Open-field test, chronic stress induced depression; assay type: in vivo, SD rats; conditions: 3 mg/kg/day gavage for 21 days, 3 minutes, Hydrochloride
# Procedure: (§1) The gavage was carried out along with the model establishment, once a day, for 21 days. […] Referring to the methods in the literature (Xu Jing, Li Xiaoqiu, Establishment and evaluation of the model of chronic stress induced depression, Chinese Journal of Behavioral Medical Science, 2003, 12(1): 14 16), the model was established (i.e., establishing animal model of anti-depression by means of CUMS): the foot electric shock (voltage: […] (5 minutes), drying at 45° C. (5 minutes), tail nipping (1 min), wet feeding (wet mat), reversed day and night (24 hours), fasting (24 hours), water deprivation (24 hours) were randomly scheduled within 21 days, one kind of stimulations was given for each day, except for the animals of vehicle group, the others were separately caged with free diet, at the room temperature of (24±1)° C., with the relative humidity of (60±10)%. The open-field device was of 40 cm in height, 80 cm in both length and width, without cap, the inner walls and the bottom of the device are black, and the bottom was divided into 25 squares with equal area. The numbers of squares that the animals pass through were designated as the score of horizontal movement, and the numbers of standing (with the forelegs above 1 cm away from the ground) were designated as the score of vertical movement. Each animal was measured for one time, 3 minutes for each measurement. All parameters to be tested were expressed as Mean±SD (X±s), and tested by means of analysis of variance (ANOVA) in SPSS 12.0 software (purchased from SPSS Inc., USA), p<0.05 means that there was a significant difference.
# [5] = test system: rats with chronic stress induced depression model; test: Body weights of rats with chronic stress induced depression (CUMS); assay type: in vivo, SD rats; conditions: 3 mg/kg/day gavage
# Procedure: as §1, with “(60±10)%.” for “(60±10)%. The open-field device was of 40 cm in height, 80 cm in both length and width, without cap, the inner walls and the bottom of the device are black, and the bottom was divided into 25 squares with equal area. The numbers of squares that the animals pass through were designated as the score of horizontal movement, and the numbers of standing (with the forelegs above 1 cm away from the ground) were designated as the score of vertical movement. Each animal was measured for one time, 3 minutes for each measurement.”
# [6] = test system: rats with chronic stress induced depression model; test: Jump stair test, chronic stress induced depression; assay type: in vivo, SD rats; conditions: 3 mg/kg/day gavage for 21 days, 5 minutes, Hydrochloride; for Error times in testing period: after 24 hours
# Procedure: The gavage was carried out along with the model establishment, once a day, for 21 days. […] Referring to the methods in the literature (Xu Jing, Li Xiaoqiu, Establishment and evaluation of the model of chronic stress induced depression, Chinese Journal of Behavioral Medical Science, 2003, 12(1): 14 16), the model was established (i.e., establishing animal model of anti-depression by means of CUMS): the foot electric shock (voltage: […] (5 minutes), drying at 45° C. (5 minutes), tail nipping (1 min), wet feeding (wet mat), reversed day and night (24 hours), fasting (24 hours), water deprivation (24 hours) were randomly scheduled within 21 days, one kind of stimulations was given for each day, except for the animals of vehicle group, the others were separately caged with free diet, at the room temperature of (24±1)° C., with the relative humidity of (60±10)%. […] A wooden platform (height: 5 cm, diameter: 8 cm) was placed into the box at the left back corner. Animals were placed into the response box to adapt to the environment for 3 minutes, and then the box was immediately electrified with […] alternating current, the normal response of the animal which suffered from electric shock was to jump onto the platform in order to avoid such harmful stimulation. Most animals were likely to jump down to the copper railings again or for several times, and then quickly jump back to the platform after suffering from the electric shock, being trained like this for 5 minutes, the times that the rats suffered from the electric shock were designated as error times. The test was carried out again after 24 hours, rats were placed on the platform and the box was charged, timing and recording the error times for 5 minutes. All parameters to be tested were expressed as Mean±SD (X±s), and tested by means of analysis of variance (ANOVA) in SPSS 12.0 software (purchased from SPSS Inc., USA), p<0.05 means that there was a significant difference.
# ICR mice [7] = test: Tail suspension test in mice, extract of Radix paeoniae alba; assay type: in vivo; conditions: 3.5 mg/kg/d gavage for 2 days; 1 hour after last administration; 4 min; Hydrochloride
# Procedure: Each group was administered at a dosage of 0.2 ml/10 g body weight. The vehicle group was administered with deionized water by gavage once a day, for 2 days. The test was carried out at 1 hour after the last administration. The tail of mouse (2 cm away from the tip of the tail) was fixed to the connection line of 100 g tension transducer with adhesive plaster, and the mouse was hung upside down, with the head about 15 cm away from the experimental bench, the transducer was connected to the Medlab bio-signals acquisition and processing system, after 2 min of adaption, the immobility time(s) for 4 min was recorded.
# The experimental data was expressed as X±s, analyzed by SPSS 13.0 statistical software by means of One-Way ANOVA test.
# [8] = test system: rats with chronic stress induced depression model; test: Consumption of 1% aqueous sucrose, chronic stress induced depression; assay type: in vivo, SD rats; conditions: 3 mg/kg/day gavage, 1% aqueous sucrose for 1 hour
# Procedure: The gavage was carried out along with the model establishment, once a day, for 21 days. […] Referring to the methods in the literature (Xu Jing, Li Xiaoqiu, Establishment and evaluation of the model of chronic stress induced depression, Chinese Journal of Behavioral Medical Science, 2003, 12(1): 14 16), the model was established (i.e., establishing animal model of anti-depression by means of CUMS): the foot electric shock (voltage: […] (5 minutes), drying at 45° C. […] All parameters to be tested were expressed as Mean±SD (X±s), and tested by means of analysis of variance (ANOVA) in SPSS 12.0 software (purchased from SPSS Inc., USA), p<0.05 means that there was a significant difference.
# [9] = 3.5 mg/kg/d by gavage for two days
# [10] = 7 mg/kg/d by gavage for two days
# [11] = 14 mg/kg/d by gavage for two days
# [12] = Day 14, listed as Positice control, Hydrochloride
# [13] = Day 14, listed as Prozac, Hydrochloride
# [14] = Day 21, listed as Positice control, Hydrochloride
# [15] = Day 21, listed as Prozac, Hydrochloride
smiles,measurement,setting,value
C[C@@]12C[C@@]3(O)O[C@@H](O1)[C@]1(COC(=O)c4ccccc4)[C@H]3C[C@@]12O[C@@H]1O[C@H](CO)[C@@H](O)[C@H](O)[C@H]1O [Paeoniflorin],Immobility Time,ICR mice [1]; [9],58.60 ± 32.320 s
same,Immobility Time (s),ICR mice [1]; [9],not significantly different from the model group
same,Immobility Time,ICR mice [1]; [10],43.94 ± 38.341 s
same,Immobility Time (s),ICR mice [1]; [10],not significantly different from the model group
same,Immobility Time,ICR mice [1]; [11],50.39 ± 31.257 s
same,Immobility Time (s),ICR mice [1]; [11],not significantly different from the model group
same,Immobility Time,ICR mice [2]; [9],85.62 ± 31.225 s
same,Immobility Time (s),ICR mice [2]; [9],not significantly different from the model group
same,Immobility Time,ICR mice [2]; [10],76.83 ± 36.452 s
same,Immobility Time (s),ICR mice [2]; [10],not significantly different from the model group
same,Immobility Time,ICR mice [2]; [11],81.32 ± 32.756 s
same,Immobility Time (s),ICR mice [2]; [11],not significantly different from the model group
Fc1ccc([C@@H]2CCNC[C@H]2COc2ccc3c(c2)OCO3)cc1 [Paroxetine],Hypothermia value (° C.),ICR mice [3],2.38 ± 0.69** ° C.
same,Hypothermia value (° C.),ICR mice [3]; listed as paroxetine,significantly recede
"CNCCC(Oc1ccc(C(F)(F)F)cc1)c1ccccc1 (stereo not drawn) [Positive control, Fluoxetine Hydrochloride]",Score of horizontal movement,[4]; listed as Positice control,28.09 ± 18.55
same,Score of vertical movement,[4]; listed as Positice control,7.00 ± 3.90
same,Score of horizontal movement,[4]; listed as Prozac,significantly increased
same,Score of vertical movement,[4]; listed as Prozac,significantly increased
same,Immobility Time,ICR mice [2]; [9],66.21 ± 33.253 s
same,body weights,[5]; Day 0,257.19 ± 9.90 g
same,body weights,[5]; Day 7,265.90 ± 13.94 g
same,body weights,[5]; [12],280.64 ± 12.32 g
same,body weights,[5]; [13],significantly increased
same,body weights,[5]; [14],291.00 ± 11.31 g
same,body weights,[5]; [15],significantly increased
same,Error times in training period,[6],2.09 ± 1.22
same,Error times in training period,[6]; listed as Prozac,significantly reduced
same,Error times in testing period,[6],0.72 ± 1.19
same,Error times in testing period,[6]; listed as Prozac,significantly reduced
same,Immobility Time,ICR mice [7],significantly reduced
same,comsumption of aqeous sucrose,[8]; Day 0,12.67 ± 5.53 mL
same,comsumption of aqeous sucrose,[8]; Day 7,10.00 ± 4.24 mL
same,comsumption of aqeous sucrose,[8]; [12],15.00 ± 2.22 mL
same,comsumption of aqeous sucrose,[8]; [13],significantly increased
same,comsumption of aqeous sucrose,[8]; [14],14.91 ± 2.68 mL
same,comsumption of aqeous sucrose,[8]; [15],significantly increased
